In ChEMBL document CHEMBL4385605, “Synthesis and Structure-Affinity Relationships of Spirocyclic Benzopyrans with Exocyclic Amino Moiety” (J Med Chem, 2019):
The source made the active and inactive calls. The rule behind the calls is not given here.

Assays:
Sus scrofa = species: Sus scrofa; assay: Displacement of [3H]-(+)-MK-801 from PCP binding site of NMDA receptor in pig brain cortex membranes up to 1 uM after 120 mins by scintillation counting analysis; assay type: cell membranes
[1] = target: Kappa-type opioid receptor (Cavia porcellus) (UniProt P41144); assay: Displacement of [3H]U69,593 from kappa opioid receptor in guinea pig brain membrane at 1 uM after 120 mins by scintillation counting analysis relative to control; assay type: cell membranes
[2] = target: Mu-type opioid receptor (Cavia porcellus) (UniProt P97266); assay: Displacement of [3H]DAMGO from mu opioid receptor in guinea pig brain membranes at 1 uM after 120 mins by scintillation counting analysis relative to control; assay type: cell membranes
[3] = target: Delta-type opioid receptor (Rattus norvegicus) (UniProt P33533); assay: Displacement of [3H]DPDPE from delta opioid receptor in rat membrane at 1 uM after 120 mins by scintillation counting analysis relative to control; assay type: cell membranes
[4] = target: Sigma intracellular receptor 2 (Homo sapiens, UniProt Q5BJF2); assay: Displacement of [3H]-di-o-tolylguanidine from sigma2 receptor in human RT4 cell membranes incubated for 120 mins in the presence of sigma1 receptor ligand (+)-pentazocine by scintillation counting method
[5] = target: T1, Sigma intracellular receptor 2 (Rattus norvegicus, UniProt Q5U3Y7); assay: Displacement of [3H]-di-o-tolylguanidine from sigma2 receptor in rat liver membranes incubated for 120 mins in the presence of sigma1 receptor ligand (+)-pentazocine by scintillation counting method; assay type: cell membranes
T1 sequence (Q5U3Y7 whole entry): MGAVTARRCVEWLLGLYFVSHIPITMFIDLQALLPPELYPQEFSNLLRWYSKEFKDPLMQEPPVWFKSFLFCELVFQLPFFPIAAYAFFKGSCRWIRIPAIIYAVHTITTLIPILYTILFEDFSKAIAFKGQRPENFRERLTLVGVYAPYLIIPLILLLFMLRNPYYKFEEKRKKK

[6] = target: Sigma non-opioid intracellular receptor 1 (Cavia porcellus, UniProt Q60492); assay: Displacement of [3H](+)-pentazocine from sigma 1 receptor in guinea pig brain cortex membranes after 120 mins by scintillation counting analysis; assay type: cell membranes
[7] = Selectivity ratio of Ki for displacement of [3H]DTG from sigma2 receptor in rat liver membranes to Ki for displacement of (+)-[3H]pentazocine from sigma 1 receptor in guinea pig brain cortex membranes; assay type: cell membranes
Mu-type opioid receptor = Mu-type opioid receptor (Cavia porcellus, UniProt P97266); assay: Displacement of [3H]DAMGO from mu opioid receptor in guinea pig brain membranes after 120 mins by scintillation counting analysis; assay type: cell membranes
[8] = target: Delta-type opioid receptor (Rattus norvegicus, UniProt P33533); assay: Displacement of [3H]DPDPE from delta opioid receptor in rat membranes after 120 mins by scintillation counting analysis; assay type: cell membranes
[9] = target: Kappa-type opioid receptor (Cavia porcellus, UniProt P41144); assay: Displacement of [3H]U69,593 from kappa opioid receptor in guinea pig brain membrane after 120 mins by scintillation counting analysis; assay type: cell membranes
[10] = target: Sodium-dependent dopamine transporter (Homo sapiens) (UniProt Q01959); assay: Binding affinity to dopamine transporter (unknown origin) at 1 uM
Cytochrome P450 2C9 = Cytochrome P450 2C9 (Homo sapiens, UniProt P11712); assay: Inhibition of recombinant human CYP2C9 at 1 uM by fluorescence assay; assay type: ADME; details: recombinant enzyme
CYP2D6 = CYP2D6 (Homo sapiens, UniProt P10635); assay: Inhibition of recombinant human CYP2D6 at 1 uM by fluorescence assay relative to control; assay type: ADME
[11] = target: 5-hydroxytryptamine receptor 2B (Homo sapiens) (UniProt P41595); assay: Binding affinity to 5-HT2BR (unknown origin) at 1 uM relative to control
[12] = Metabolic stability in human liver microsomes assessed as parent compound remaining at 1 uM in the presence of NADPH regenerating system after 60 mins by UPLC/MS analysis; assay type: ADME, Microsome; details: read-out: Stability
[13] = target: Sodium-dependent serotonin transporter (Homo sapiens) (UniProt P31645); assay: Binding affinity to serotonin transporter (unknown origin) at 1 uM
HepG2 [14] = assay: Cytotoxicity against human HepG2 cells at 1 to 100 uM incubated for 20 hrs under serum free condition by neutral red uptake assay; assay type: cell-based; details: hepg2, 20 h
[15] = target: T2, Alpha-2A adrenergic receptor (Homo sapiens) (UniProt P08913); assay: Binding affinity to alpha 2a adrenergic receptor (unknown origin) at 1 uM relative to control
T2 sequence (whole entry): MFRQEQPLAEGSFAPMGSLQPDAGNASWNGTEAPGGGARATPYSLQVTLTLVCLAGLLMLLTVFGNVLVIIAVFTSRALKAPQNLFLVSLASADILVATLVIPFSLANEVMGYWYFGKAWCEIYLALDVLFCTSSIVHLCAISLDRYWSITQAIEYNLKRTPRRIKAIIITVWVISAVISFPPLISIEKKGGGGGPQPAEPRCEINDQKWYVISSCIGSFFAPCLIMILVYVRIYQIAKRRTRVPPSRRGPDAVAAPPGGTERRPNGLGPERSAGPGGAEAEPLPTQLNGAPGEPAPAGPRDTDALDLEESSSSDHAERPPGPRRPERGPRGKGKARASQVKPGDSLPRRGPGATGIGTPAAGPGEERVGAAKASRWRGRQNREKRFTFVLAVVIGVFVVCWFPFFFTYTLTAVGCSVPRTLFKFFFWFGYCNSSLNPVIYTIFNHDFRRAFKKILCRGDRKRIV

[16] = target: T3, 5-hydroxytryptamine receptor 1A (Homo sapiens) (UniProt P08908); assay: Binding affinity to 5-HT1AR (unknown origin) at 1 uM relative to control
T3 sequence (whole entry): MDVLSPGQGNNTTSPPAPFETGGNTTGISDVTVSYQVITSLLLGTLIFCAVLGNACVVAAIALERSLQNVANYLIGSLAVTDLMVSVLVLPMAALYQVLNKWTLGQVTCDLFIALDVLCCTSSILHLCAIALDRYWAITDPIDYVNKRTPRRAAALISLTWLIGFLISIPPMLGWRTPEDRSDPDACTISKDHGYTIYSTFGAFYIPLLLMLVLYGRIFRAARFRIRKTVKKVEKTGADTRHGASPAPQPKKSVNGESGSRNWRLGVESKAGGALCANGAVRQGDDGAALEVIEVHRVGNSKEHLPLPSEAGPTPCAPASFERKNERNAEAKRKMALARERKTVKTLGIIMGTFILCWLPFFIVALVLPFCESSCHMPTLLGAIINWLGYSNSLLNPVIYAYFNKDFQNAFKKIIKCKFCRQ

HepG2 [17] = assay: Cytotoxicity against human HepG2 cells at 1 to 100 uM incubated for 20 hrs under serum free condition by MTT assay; assay type: cell-based; details: hepg2, 20 h
Cytochrome P450 3A4 = Cytochrome P450 3A4 (Homo sapiens, UniProt P08684); assay: Inhibition of recombinant human CYP3A4 at 1 uM by fluorescence assay; assay type: ADME; details: recombinant enzyme
[18] = target: Sodium-dependent noradrenaline transporter (Homo sapiens) (UniProt P23975); assay: Binding affinity to noradrenaline transporter (unknown origin) at 1 uM
[19] = target: Sigma non-opioid intracellular receptor 1 (Homo sapiens, UniProt Q99720); assay: Displacement of [3H](+)-pentazocine from sigma 1 receptor in human RPMI8226 cell membranes incubated for 2 hrs under shaking by scintillation counting analysis
Cytochrome P450 2C19 = Cytochrome P450 2C19 (Homo sapiens, UniProt P33261); assay: Inhibition of recombinant human CYP2C19 at 1 uM by fluorescence assay; assay type: ADME; details: recombinant enzyme
[20] = target: T4, Alpha-1A adrenergic receptor (Homo sapiens) (UniProt P35348); assay: Binding affinity to alpha 1a adrenergic receptor (unknown origin) at 1 uM relative to control
T4 sequence (whole entry): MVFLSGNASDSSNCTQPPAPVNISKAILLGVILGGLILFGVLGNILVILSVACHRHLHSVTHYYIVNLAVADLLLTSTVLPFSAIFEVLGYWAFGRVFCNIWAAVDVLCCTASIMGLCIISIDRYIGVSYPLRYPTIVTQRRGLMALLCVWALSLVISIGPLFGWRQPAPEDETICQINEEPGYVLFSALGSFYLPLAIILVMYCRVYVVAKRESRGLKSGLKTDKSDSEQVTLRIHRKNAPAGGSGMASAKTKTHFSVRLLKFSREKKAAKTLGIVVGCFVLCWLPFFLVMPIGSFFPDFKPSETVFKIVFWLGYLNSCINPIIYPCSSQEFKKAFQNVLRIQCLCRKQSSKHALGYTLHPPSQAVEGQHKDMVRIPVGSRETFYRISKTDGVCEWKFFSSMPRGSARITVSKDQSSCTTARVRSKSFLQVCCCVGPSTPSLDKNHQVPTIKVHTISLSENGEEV

Cytochrome P450 1A2 = target: T5, Cytochrome P450 1A2 (Homo sapiens, UniProt P05177); assay: Inhibition of recombinant human CYP1A2 at 1 uM by fluorescence assay; assay type: ADME; details: recombinant enzyme
T5 sequence (P05177 whole entry): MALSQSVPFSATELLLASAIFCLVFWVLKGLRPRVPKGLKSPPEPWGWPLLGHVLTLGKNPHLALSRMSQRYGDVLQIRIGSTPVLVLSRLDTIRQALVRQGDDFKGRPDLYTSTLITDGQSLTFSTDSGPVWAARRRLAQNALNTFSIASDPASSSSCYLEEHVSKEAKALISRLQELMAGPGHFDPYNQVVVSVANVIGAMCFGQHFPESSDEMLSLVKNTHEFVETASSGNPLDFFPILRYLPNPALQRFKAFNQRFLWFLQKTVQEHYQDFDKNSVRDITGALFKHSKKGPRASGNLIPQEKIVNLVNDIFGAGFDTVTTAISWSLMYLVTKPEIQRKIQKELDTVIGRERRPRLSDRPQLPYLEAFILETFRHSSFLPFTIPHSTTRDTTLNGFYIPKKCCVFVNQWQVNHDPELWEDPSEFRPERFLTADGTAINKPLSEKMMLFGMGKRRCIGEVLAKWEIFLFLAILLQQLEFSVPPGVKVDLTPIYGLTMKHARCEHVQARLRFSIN

Sequence of Kappa-type opioid receptor (Cavia porcellus) (P41144 whole entry): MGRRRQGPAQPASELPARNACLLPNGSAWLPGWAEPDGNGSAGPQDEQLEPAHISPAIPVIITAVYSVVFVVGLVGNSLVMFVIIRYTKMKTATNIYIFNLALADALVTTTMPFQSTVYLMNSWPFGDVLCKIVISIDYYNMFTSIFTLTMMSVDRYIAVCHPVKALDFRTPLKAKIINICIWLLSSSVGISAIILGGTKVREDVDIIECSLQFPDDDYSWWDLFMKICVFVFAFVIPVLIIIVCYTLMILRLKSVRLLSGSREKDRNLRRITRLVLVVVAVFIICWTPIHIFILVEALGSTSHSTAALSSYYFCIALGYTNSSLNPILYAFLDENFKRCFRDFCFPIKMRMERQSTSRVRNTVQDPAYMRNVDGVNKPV
Sequence of Delta-type opioid receptor (P33533 whole entry): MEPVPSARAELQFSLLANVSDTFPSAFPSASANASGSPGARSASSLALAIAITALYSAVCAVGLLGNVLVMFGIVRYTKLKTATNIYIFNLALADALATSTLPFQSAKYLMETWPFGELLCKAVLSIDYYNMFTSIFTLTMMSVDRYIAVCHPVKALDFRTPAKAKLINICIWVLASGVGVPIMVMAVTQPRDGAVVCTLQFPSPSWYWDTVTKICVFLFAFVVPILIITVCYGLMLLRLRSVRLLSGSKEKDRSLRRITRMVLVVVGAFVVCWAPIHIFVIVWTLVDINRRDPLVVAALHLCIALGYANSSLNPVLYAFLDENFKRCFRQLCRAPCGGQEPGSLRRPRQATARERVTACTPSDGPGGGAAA
Sequence of Delta-type opioid receptor (Rattus norvegicus) (P33533 whole entry): as above
Sequence of Mu-type opioid receptor (P97266 whole entry): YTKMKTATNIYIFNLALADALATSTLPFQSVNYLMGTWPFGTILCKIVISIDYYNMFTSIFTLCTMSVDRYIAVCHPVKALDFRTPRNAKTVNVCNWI
Sequence of Mu-type opioid receptor (Cavia porcellus) (P97266 whole entry): as above
Sequence of Sigma intracellular receptor 2 (Homo sapiens, UniProt Q5BJF2) (Q5BJF2 whole entry): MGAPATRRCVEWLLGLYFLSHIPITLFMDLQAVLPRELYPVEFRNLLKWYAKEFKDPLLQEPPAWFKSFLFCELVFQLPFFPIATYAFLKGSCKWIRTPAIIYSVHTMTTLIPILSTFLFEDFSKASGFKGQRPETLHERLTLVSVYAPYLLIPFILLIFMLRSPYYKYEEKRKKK
Sequence of Sigma non-opioid intracellular receptor 1 (Cavia porcellus, UniProt Q60492) (Q60492 whole entry): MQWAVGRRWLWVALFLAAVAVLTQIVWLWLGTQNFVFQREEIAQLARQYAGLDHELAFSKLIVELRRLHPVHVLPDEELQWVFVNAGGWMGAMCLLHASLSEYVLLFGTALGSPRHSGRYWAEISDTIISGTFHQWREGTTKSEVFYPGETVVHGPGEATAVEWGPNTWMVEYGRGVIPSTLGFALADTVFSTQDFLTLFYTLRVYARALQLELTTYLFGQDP
Sequence of Kappa-type opioid receptor (P41144 whole entry): as the sequence (P41144 whole entry) above
Sequence of Sodium-dependent dopamine transporter (Homo sapiens) (Q01959 whole entry): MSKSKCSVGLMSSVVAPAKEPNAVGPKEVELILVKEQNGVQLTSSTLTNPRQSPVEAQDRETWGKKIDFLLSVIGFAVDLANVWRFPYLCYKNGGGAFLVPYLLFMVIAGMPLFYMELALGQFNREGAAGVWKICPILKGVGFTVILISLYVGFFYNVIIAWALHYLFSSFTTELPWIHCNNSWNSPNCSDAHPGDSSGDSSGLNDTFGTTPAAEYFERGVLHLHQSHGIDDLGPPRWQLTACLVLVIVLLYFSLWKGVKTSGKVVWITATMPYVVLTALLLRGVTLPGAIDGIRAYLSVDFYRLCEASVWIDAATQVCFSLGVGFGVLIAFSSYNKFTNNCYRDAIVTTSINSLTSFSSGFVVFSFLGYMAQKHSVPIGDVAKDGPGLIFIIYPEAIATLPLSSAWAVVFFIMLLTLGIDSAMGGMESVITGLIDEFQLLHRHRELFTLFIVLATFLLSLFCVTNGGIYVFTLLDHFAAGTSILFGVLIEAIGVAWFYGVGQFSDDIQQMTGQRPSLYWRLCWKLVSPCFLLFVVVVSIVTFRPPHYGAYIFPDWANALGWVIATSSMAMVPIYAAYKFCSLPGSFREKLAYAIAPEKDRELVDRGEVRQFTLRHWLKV
Sequence of CYP2D6 (P10635 whole entry): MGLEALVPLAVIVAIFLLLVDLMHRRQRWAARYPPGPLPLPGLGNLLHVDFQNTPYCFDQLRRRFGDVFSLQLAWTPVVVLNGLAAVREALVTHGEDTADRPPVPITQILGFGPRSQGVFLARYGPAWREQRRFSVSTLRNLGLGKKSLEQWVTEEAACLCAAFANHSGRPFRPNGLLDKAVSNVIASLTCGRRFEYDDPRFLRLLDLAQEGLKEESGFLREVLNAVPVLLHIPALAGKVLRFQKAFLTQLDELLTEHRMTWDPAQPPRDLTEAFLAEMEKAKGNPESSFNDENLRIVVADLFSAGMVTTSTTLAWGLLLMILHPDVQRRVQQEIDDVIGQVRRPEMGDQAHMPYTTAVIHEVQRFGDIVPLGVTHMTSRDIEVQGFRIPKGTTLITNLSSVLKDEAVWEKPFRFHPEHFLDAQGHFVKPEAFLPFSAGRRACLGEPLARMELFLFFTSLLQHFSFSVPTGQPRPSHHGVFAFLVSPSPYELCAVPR
Sequence of Cytochrome P450 2C9 (P11712 whole entry): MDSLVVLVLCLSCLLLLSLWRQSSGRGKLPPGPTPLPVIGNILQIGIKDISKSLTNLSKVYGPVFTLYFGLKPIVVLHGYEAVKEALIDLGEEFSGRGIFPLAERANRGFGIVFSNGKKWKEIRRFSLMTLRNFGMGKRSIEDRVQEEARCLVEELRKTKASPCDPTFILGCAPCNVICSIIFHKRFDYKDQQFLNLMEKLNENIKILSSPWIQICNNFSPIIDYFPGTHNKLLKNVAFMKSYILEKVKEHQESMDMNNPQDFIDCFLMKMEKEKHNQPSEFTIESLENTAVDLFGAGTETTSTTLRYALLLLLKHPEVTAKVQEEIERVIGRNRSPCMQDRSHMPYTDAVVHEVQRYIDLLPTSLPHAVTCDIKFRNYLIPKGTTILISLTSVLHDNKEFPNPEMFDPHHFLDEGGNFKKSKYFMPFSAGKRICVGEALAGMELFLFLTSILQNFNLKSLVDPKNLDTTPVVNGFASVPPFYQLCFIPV
Sequence of Sodium-dependent serotonin transporter (Homo sapiens) (P31645 whole entry, looked up): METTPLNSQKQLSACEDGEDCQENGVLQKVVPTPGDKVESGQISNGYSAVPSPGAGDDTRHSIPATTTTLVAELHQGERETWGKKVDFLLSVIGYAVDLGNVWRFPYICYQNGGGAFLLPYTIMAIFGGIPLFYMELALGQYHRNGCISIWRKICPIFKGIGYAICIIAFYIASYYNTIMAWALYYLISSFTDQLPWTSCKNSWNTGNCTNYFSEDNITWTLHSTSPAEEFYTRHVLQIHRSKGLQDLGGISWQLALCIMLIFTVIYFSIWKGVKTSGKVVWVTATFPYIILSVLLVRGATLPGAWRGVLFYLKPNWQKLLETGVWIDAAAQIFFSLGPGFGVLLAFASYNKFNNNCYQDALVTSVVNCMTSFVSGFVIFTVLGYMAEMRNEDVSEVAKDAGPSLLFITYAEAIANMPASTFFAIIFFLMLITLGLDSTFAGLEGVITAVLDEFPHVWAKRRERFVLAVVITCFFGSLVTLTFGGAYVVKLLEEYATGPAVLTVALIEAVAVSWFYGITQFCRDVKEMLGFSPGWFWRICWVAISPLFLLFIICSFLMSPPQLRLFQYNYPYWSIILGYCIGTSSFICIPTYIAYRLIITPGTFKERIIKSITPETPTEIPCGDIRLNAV
Sequence of Cytochrome P450 2C19 (P33261 whole entry): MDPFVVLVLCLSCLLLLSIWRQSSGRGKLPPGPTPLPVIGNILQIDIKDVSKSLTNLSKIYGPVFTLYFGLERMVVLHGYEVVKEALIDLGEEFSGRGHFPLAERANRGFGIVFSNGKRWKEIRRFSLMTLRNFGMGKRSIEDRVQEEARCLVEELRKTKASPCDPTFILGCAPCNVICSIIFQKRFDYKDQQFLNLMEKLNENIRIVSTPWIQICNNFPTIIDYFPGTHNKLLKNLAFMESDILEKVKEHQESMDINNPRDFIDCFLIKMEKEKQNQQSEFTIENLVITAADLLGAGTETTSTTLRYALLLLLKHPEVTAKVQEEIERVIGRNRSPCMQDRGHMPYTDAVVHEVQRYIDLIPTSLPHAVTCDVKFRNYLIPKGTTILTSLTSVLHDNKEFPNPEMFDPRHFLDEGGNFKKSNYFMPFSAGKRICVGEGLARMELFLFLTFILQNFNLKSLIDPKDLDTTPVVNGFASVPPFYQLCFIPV

Compound | Activity (Sus scrofa) | inhibition [1] [%] | inhibition [2] [%] | inhibition [3] [%] | Ki [4] [nM] | Ki [5] [nM] | Ki [6] [nM] | Ratio Ki [7] | Ki (Mu-type opioid receptor) [nM] | Ki [8] [nM] | also measured
COC1Cc2ccccc2[C@]2(CC[C@H](NCc3ccccc3)CC2)O1 (stereo partly drawn) | inactive | 27 | 20 | 41 | 227 | – | – | – | – | – | –
c1ccc2c(c1)CCO[C@]21CC[C@@H](NCC2CCCCC2)CC1 | – | 16 | – | 11 | 33 | 84 | 18 | 5 to 10 | 841 | – | –
COC1O[C@]2(CC[C@@H](N(C)CC3CCCCC3)CC2)c2ccccc21 (stereo partly drawn) | – | 0 | 16 | – | 7.6 | 70 | 8.2 | 5 to 10 | – | 559 | –
COC1Cc2ccccc2[C@]2(CC[C@H](NCC3CCCCC3)CC2)O1 (stereo partly drawn) | inactive | 28 | – | 33 | – | 101 | 5.8 | 5 to 10 | 462 | – | –
C1=Cc2ccccc2[C@]2(CC[C@H](NCC3CCCCC3)CC2)O1 | – | 18 | 15 | – | 6.7 | 67 | 5.7 | 5 to 10 | – | 209 | –
COC1Cc2ccccc2[C@]2(CC[C@@H](NCC3CCCCC3)CC2)O1 (stereo partly drawn) | inactive | – | – | – | – | 128 | 19 | 5 to 10 | 354 | 228 | Ki [9]: 96 nM
COC1Cc2ccccc2[C@]2(CC[C@@H](N(C)CC3CCCCC3)CC2)O1 (stereo partly drawn) | inactive | – | – | – | – | 154 | 3.1 | 50 | 299 | 150 | Activity [10]: inactive; inhibition (INH) (Cytochrome P450 2C9): Not Active; Ki [9]: 980 nM; inhibition at 1 µM (CYP2D6): > 90%; Activity [11]: inactive; remaining at 1 h, 1 µM [12]: > 50%; Activity [13]: inactive; Activity (HepG2 [14]): Non-Toxic; Activity [15]: inactive; Activity [16]: inactive; Activity (HepG2 [17]): Non-Toxic; inhibition (INH) (Cytochrome P450 3A4): Not Active; Activity [18]: inactive; Ki [19]: 6.9 nM; inhibition (INH) (Cytochrome P450 2C19): Not Active; Activity [20]: inactive; inhibition (INH) (Cytochrome P450 1A2): Not Active
CN(CC1CCCCC1)[C@H]1CC[C@]2(CC1)OCCc1ccccc12 | – | 10 | 13 | – | 5.5 | 30 | 3.1 | 5 to 10 | – | 565 | –
c1ccc(CN[C@H]2CC[C@]3(CC2)OCCc2ccccc23)cc1 | – | 0 | 0 | 20 | – | 503 | 97 | 5 to 10 | – | – | –
CCOC1Cc2ccccc2[C@]2(CC[C@@H](N(C)CC3CCCCC3)CC2)O1 (stereo partly drawn) | – | 24 | – | 13 | 93 | 361 | 15 | 24 | 879 | – | –
